Laboratory results reported in US20100273656A1, “COMPOSITION AND METHOD FOR SELECTIVE HERBICIDE” (priority 2002, published 2010).

Test system: perennial ryegrass
Assay: Example 19 FeHEDTA with Killex at reduced rates, perennial ryegrass
Assay type: in vivo
Conditions: Killex ® 0%, 7 days after application
Experimental: Plants were fertilized with an all purpose water-soluble fertilizer mix of 20-20-20 (N-P-K; Plant-Prod®) as needed. All broadleaf weeds were grown individually in a 2¼-inch pot until they were a suitable size for herbicide tests (actual weed size is reported in examples below). Perennial ryegrass was also grown in 2¼-inch pots, however many grass seeds were sown in the pot to simulate a small section of turf. Grass plants were continually trimmed to a height of 4 cm, simulating that of a homeowner's lawn. For field tests, plots ¼ m^2 in size were marked out in areas containing the targeted broadleaf weed species growing in turf grass. Plots were continually mowed to simulate a homeowner's lawn. […] In all of the examples, the amounts of the various herbicide components are identified as a percent on a weight basis.
Killex® (Scotts Canada, Ltd., Ontario, Canada) is a commonly used selective lawn herbicide and was used as the commercial herbicide for herbicide combinations. The labeled dilution and application rates for Killex® are 6 ml into 1 L of solution (0.6%) applied at 200 ml/m^2.
All visual plant damage assessments were made using a quantitative rating scale; percent control relative to the untreated check (0=no effect; 100=plant death).
Materials and Methods: This trial was conducted in the greenhouse. Ten broadleaf plantain plants and 5 pots of perennial ryegrass were selected for each treatment. Herbicide solutions were prepared using deionized water. The treatments were applied using a hand-trigger sprayer at 200 ml/m^2. All treatments were applied once. Phytotoxicity (%) was assessed 7 days after application (A7).

In the case of `O=C([O-])CN(CCO)CCN(CC(=O)[O-])CC(=O)[O-].[Fe+3]` [FeHEDTA], the “A7 Phytotoxicity (%) against perennial ryegrass” value (“A7 Phytotoxicity (%)” for short) (listed as FeHEDTA 0.1% Fe) is reported as 1%, the “A7 Phytotoxicity (%)” value (listed as FeHEDTA 0.2% Fe) is reported as 1% and the “A7 Phytotoxicity (%)” value (listed as FeHEDTA 0.4% Fe) is reported as 2%.
